Columns and labels:
Format in all cases: in vivo
Myzus persicae = assay: Myzus Test (spray treatment); settings: 500 g/ha; after 5 d
Meloidogyne incognita = assay: Meloidogyne Test (gall formation on lettuce roots); settings: 20 ppm; after 14 d
Experimental: To produce a suitable preparation of active compound, 1 part by weight of active compound is mixed with the stated amounts of solvent and emulsifier, and the concentrate is diluted with water to the desired concentration.
Containers are filled with sand, solution of active compound, Meloidogyne incognita egg/larvae suspension and lettuce seeds. The lettuce seeds germinate and the plants develop. On the roots, galls are formed.
After the desired period of time, the nematicidal action is determined in % by gall formation. 100% means that no galls were found; 0% means that the number of galls on the treated plants corresponds to that of the untreated control.

Maize [1] = assay: Herbicidal action and safener action, safener and herbicide applied successively pre-emergence
Experimental: (§1) Herbicidal Action and Safener Action, Pre-emergence or Post-emergence
(§2) Seeds of rhizome pieces of monocotyledonous and dicotyledonous harmful plants and of crop plants are placed into sandy loam in pots made of peat, covered with soil and cultivated in a greenhouse under growth conditions. In the pre-emergence application, safener and herbicide are applied after sowing, the post-emergence treatment is carried out about two to three weeks after sowing, at the three-leaf stage of the test plants. The herbicide/safener active compound combinations according to the invention, formulated as emulsion concentrates, and in parallel experiments the correspondingly formulated individual active compounds are, at various dosages at a water application rate of 300 l/ha (converted), sprayed onto the surface of the soil when applied by the pre-emergence method and onto the green parts of the plants when applied by the post-emergence method. Pre-emergence evaluation is carried out after 2-4 weeks, post-emergence evaluation is carried out after 1-3 weeks. During this time, the test plants are kept in a greenhouse under optimum growth conditions. The effect of the preparation is scored visually in comparison to untreated controls.
Safener and herbicide applied successively by the pre-emergence method.

Maize [2] = assay: Safener action after seed dressing, herbicide pre-emergence; settings: seed not safener-dressed
Experimental: Safener Action after Seed Dressing
The number of crop plant seeds needed for each safener application rate was calculated. Based on the weight of 100 seeds, sufficient seeds were weighed into screw top glass bottles approximately twice the volume of the seeds.
The prospective safeners were formulated as wettable powders or water-dispersible granules. These formulations were weighed out so that the required application rates (g of a.i./kg of seed) were obtained. The samples were added to the seeds in the bottles, followed by sufficient water to produce a seed dressing. The bottles were closed and then placed in an overhead shaker (set at medium speed for a period of up to one hour) so that the seeds were evenly coated with the seed dressing. The bottles were opened and the seeds were used in the pre-emergence tests.
Pre-emergence Application of Herbicides
The safener-treated seeds and untreated seeds as controls were sown in a sandy loam soil in round pots having a diameter of 7 to 13 cm and covered with approximately 0.5 to 1 cm of a 1:1 mix of sandy loam soil and sand. The herbicides, as liquid (for example emulsifiable concentrates) or dry (for example wettable powders) formulations, were diluted to the required concentrations using deionized water and applied to the soil surface using a track sprayer calibrated to deliver 300 liters of spray solution per hectare.
The pots were placed under good growing conditions in a greenhouse, and a visual assessment of the herbicidal effects was made 3 to 4 weeks after the application of the herbicide. The assessment was on a percentage basis in comparison to untreated control plants (0%=no damage, 100%=complete kill).
Herbicide application by the pre-emergence method, safener-dressed: […]

Summer barley = assay: Herbicidal action and safener action, post-emergence, container trials with cereal
Experimental: as §1, §2
(§3) Container trials with cereal in the greenhouse.
(§4) Safener and herbicide were applied successively to the plants by the post-emergence method (application rates: see Tables)

Summer wheat = assay: as above
Experimental: as §1, §2, §3, §4

Winter wheat = assay: as above
Experimental: as §1, §2, §3, §4

Lolium = assay: Herbicidal pre-emergence action; settings: 320 g of a.i./ha
Source text: (§5) 1. Herbicidal Pre-emergence Action
(§6) Seeds of monocotyledonous and dicotyledonous weed and crop plants are placed into sandy loam in wood fibre pots and covered with soil. The test compounds, formulated in the form of wettable powders (WP), are then, in various dosages as aqueous suspension with a water application rate of 600 l/ha (converted), with 0.2% of wetting agent added, applied to the surface of the covering soil.
(§7) After the treatment, the pots are placed in a greenhouse and kept under good growth conditions for the test plants. The visual assessment of the emergence damage on the test plants is carried out after a trial period of 3 weeks by comparison with untreated controls (herbicidal effect in percent (%): 100% effect=the plants have died, 0% effect=like control plants).

Setaria = assay: Herbicidal pre-emergence action; settings: 320 g of a.i./ha
Source text: as §5, §6, §7

[3] = application rate 25 g of a.i./ha
[4] = application rate 50 g of a.i./ha
[5] = herbicide pre-emergence 25 g of a.i./ha
[6] = herbicide pre-emergence 50 g of a.i./ha
[7] = application rate 100 g of a.i./ha

CCOC(=O)OC1=C(c2c(Cl)cc(C)cc2OC)C(=O)OC12CCC(OC)CC2 (mixture of isomers) [Ex. I-2-c-2]
kill rate against Myzus persicae (Myzus persicae): 100%

COc1cc(C)cc(Cl)c1C1=C(O)C2(CCC(OC)CC2)NC1=O (single isomer, unassigned) [Ex. I-1-a-3]
kill rate against Meloidogyne (Meloidogyne incognita): 100% | kill rate against Myzus persicae (Myzus persicae): 100%

CCCOc1cc(C)cc(Cl)c1C1=C(O)C2(CCC(OC)CC2)NC1=O (single isomer, unassigned) [Example I-1-a-4]
Maize (%) damage (Maize [1]; [3]): 10% | Maize (%) damage (Maize [1]; [4]): 20% | Maize (%) damage (Maize [2]; [5]): 10% | Maize (%) damage (Maize [2]; [6]): 20% | Summer barley (%) observed damage (Summer barley; [3]): 0% | Summer barley (%) observed damage (Summer barley; [4]): 10% | Summer barley (%) observed damage (Summer barley; [7]): 20% | Summer wheat (%) damage (Summer wheat; [3]): 20% | Summer wheat (%) damage (Summer wheat; [4]): 45% | Summer wheat (%) damage (Summer wheat; [7]): 60% | Winter wheat (%) observed damage (Winter wheat; [3]): 10% | Winter wheat (%) observed damage (Winter wheat; [4]): 30% | Winter wheat (%) observed damage (Winter wheat; [7]): 50%

CCOc1cc(C)cc(Cl)c1C1=C(O)C2(CCC(OC)CC2)NC1=O (single isomer, unassigned) [Example I-1-a-5]
Maize (%) damage (Maize [2]; [5]): 20% | Maize (%) damage (Maize [2]; [6]): 20% | Summer barley (%) observed damage (Summer barley; [3]): 10% | Summer barley (%) observed damage (Summer barley; [4]): 20% | Summer barley (%) observed damage (Summer barley; [7]): 20% | Summer wheat (%) damage (Summer wheat; [3]): 20% | Summer wheat (%) damage (Summer wheat; [4]): 50% | Summer wheat (%) damage (Summer wheat; [7]): 60% | Winter wheat (%) observed damage (Winter wheat; [3]): 10% | Winter wheat (%) observed damage (Winter wheat; [4]): 30% | Winter wheat (%) observed damage (Winter wheat; [7]): 60%

COc1cc(C)cc(Cl)c1C1=C(O)C2(CCOCC2)NC1=O [Ex. I-1-a-1]
kill rate against Meloidogyne (Meloidogyne incognita): 100%

COc1cc(C)cc(Cl)c1C1=C(O)C(C)(C)NC1=O [Ex. I-1-a-2]
kill rate against Lolium (Lolium): ≥ 80% | kill rate against Setaria (Setaria): ≥ 80%

COc1cc(C)cc(Cl)c1C1=C(O)C2(CCCC2)OC1=O [Ex. I-2-a-1]
kill rate against Myzus persicae (Myzus persicae): 100%

COc1cc(C)cc(Cl)c1C1=C(O)C2(CCC(OC)CC2)OC1=O (stereo not drawn) [Ex. I-2-a-2]
kill rate against Myzus persicae (Myzus persicae): 100%

COc1cc(C)cc(Cl)c1C1=C(OC(=O)C(C)C)C2(CCCC2)OC1=O [Ex. I-2-b-1]
kill rate against Myzus persicae (Myzus persicae): 100%

COc1cc(C)cc(Cl)c1C1=C(OC(=O)C(C)C)C2(CCOCC2)OC1=O [Ex. I-2-b-3]
kill rate against Myzus persicae (Myzus persicae): 100%

CCOC(=O)OC1=C(c2c(Cl)cc(C)cc2OC)C(=O)OC12CCCC2 [Ex. I-2-c-1]
kill rate against Myzus persicae (Myzus persicae): 100%

CCOC(=O)OC1=C(c2c(Cl)cc(C)cc2OC)C(=O)OC12CCOCC2 [Ex. I-2-c-3]
kill rate against Myzus persicae (Myzus persicae): 100%

COc1cc(C)cc(Cl)c1C1=C(OC(=O)C(C)C)C2(CCC(OC)CC2)NC1=O (stereo not drawn) [Example I-1-b-1]
Summer barley (%) observed damage (Summer barley; [3]): 30% | Summer barley (%) observed damage (Summer barley; [4]): 40% | Summer barley (%) observed damage (Summer barley; [7]): 55%

CCOC(=O)OC1=C(c2c(Cl)cc(C)cc2OC)C(=O)NC12CCC(OC)CC2 (stereo not drawn) [Example I-1-c-1]
Maize (%) damage (Maize [2]; [5]): 35% | Summer barley (%) observed damage (Summer barley; [3]): 10% | Summer barley (%) observed damage (Summer barley; [4]): 30% | Summer barley (%) observed damage (Summer barley; [7]): 60% | Winter wheat (%) observed damage (Winter wheat; [3]): 10% | Winter wheat (%) observed damage (Winter wheat; [4]): 30%

— US7947704B2, “2,4,6-phenyl-substituted cyclic ketoenols” (Bayer CropScience AG, priority 2004, dated 2011)
